Data as given in ChEMBL document CHEMBL4507280 (2021).

Experiments:
[1] = test system: Tyrosine-protein kinase ABL1 (Homo sapiens), P00519 [E255K]; details: Compound concentration 1000.0 nM
[2] = test system: ALK tyrosine kinase receptor (Homo sapiens), Q9UM73 [C1156Y]; details: Compound concentration 1000.0 nM
[3] = molecular target: Serine/threonine-protein kinase BRSK2 (Homo sapiens) (UniProt Q8IWQ3); details: Compound concentration 1000.0 nM
[4] = molecular target: Calcium/calmodulin-dependent protein kinase kinase 1 (Homo sapiens) (UniProt Q8N5S9); details: Compound concentration 1000.0 nM
[5] = molecular target: Cyclin-dependent kinase 4 (Homo sapiens) (UniProt P11802); details: Compound concentration 1000.0 nM
[6] = molecular target: Cyclin-dependent kinase 4 (Homo sapiens) (UniProt P11802); details: Compound concentration 1000.0 nM; remark: listed apart in the source
[7] = molecular target: Cyclin-dependent kinase-like 1 (Homo sapiens) (UniProt Q00532); details: Compound concentration 1000.0 nM
[8] = molecular target: Casein kinase I isoform epsilon (Homo sapiens) (UniProt P49674); details: Compound concentration 1000.0 nM
[9] = molecular target: Discoidin domain-containing receptor 2 (Homo sapiens) (UniProt Q16832); details: Compound concentration 1000.0 nM
[10] = molecular target: Ephrin type-A receptor 3 (Homo sapiens) (UniProt P29320); details: Compound concentration 1000.0 nM
[11] = molecular target: Ephrin type-B receptor 4 (Homo sapiens) (UniProt P54760); details: Compound concentration 1000.0 nM
[12] = molecular target: Mitogen-activated protein kinase 1 (Homo sapiens) (UniProt P28482); details: Compound concentration 1000.0 nM
[13] = molecular target: Fibroblast growth factor receptor 3 (Homo sapiens) (UniProt P22607); details: Compound concentration 1000.0 nM
[14] = test system: Receptor-type tyrosine-protein kinase FLT3 (Homo sapiens), P36888 [UNDEFINED MUTATION]; details: Compound concentration 1000.0 nM
[15] = test system: Receptor-type tyrosine-protein kinase FLT3 (Homo sapiens), P36888 [UNDEFINED MUTATION]; details: Compound concentration 1000.0 nM; remark: listed apart in the source
[16] = test system: Receptor-type tyrosine-protein kinase FLT3 (Homo sapiens), P36888 [R834Q]; details: Compound concentration 1000.0 nM
[17] = molecular target: Tyrosine-protein kinase FRK (Homo sapiens) (UniProt P42685); details: Compound concentration 1000.0 nM
[18] = molecular target: Cyclin-G-associated kinase (Homo sapiens) (UniProt O14976); details: Compound concentration 1000.0 nM
[19] = test system: Mast/stem cell growth factor receptor Kit (Homo sapiens), P10721 [A829P]; details: Compound concentration 1000.0 nM
[20] = molecular target: Serine/threonine-protein kinase LATS2 (Homo sapiens) (UniProt Q9NRM7); details: Compound concentration 1000.0 nM
[21] = molecular target: Tyrosine-protein kinase Lck (Homo sapiens) (UniProt P06239); details: Compound concentration 1000.0 nM
[22] = molecular target: Tyrosine-protein kinase Lyn (Homo sapiens) (UniProt P07948); details: Compound concentration 1000.0 nM
[23] = molecular target: Mitogen-activated protein kinase kinase kinase kinase 5 (Homo sapiens) (UniProt Q9Y4K4); details: Compound concentration 1000.0 nM
[24] = test system: Hepatocyte growth factor receptor (Homo sapiens), P08581 [Y1235D]; details: Compound concentration 1000.0 nM
[25] = molecular target: Dual specificity mitogen-activated protein kinase kinase 7 (Homo sapiens) (UniProt O14733); details: Compound concentration 1000.0 nM
[26] = molecular target: Serine/threonine-protein kinase 26 (Homo sapiens) (UniProt Q9P289); details: Compound concentration 1000.0 nM
[27] = molecular target: Serine/threonine-protein kinase Nek3 (Homo sapiens) (UniProt P51956); details: Compound concentration 1000.0 nM
[28] = molecular target: Serine/threonine-protein kinase OSR1 (Homo sapiens) (UniProt O95747); details: Compound concentration 1000.0 nM
[29] = molecular target: Cyclin-dependent kinase 16 (Homo sapiens) (UniProt Q00536); details: Compound concentration 1000.0 nM
[30] = molecular target: Cyclin-dependent kinase 17 (Homo sapiens) (UniProt Q00537); details: Compound concentration 1000.0 nM
[31] = molecular target: Cyclin-dependent kinase 18 (Homo sapiens) (UniProt Q07002); details: Compound concentration 1000.0 nM
[32] = molecular target: Platelet-derived growth factor receptor beta (Homo sapiens) (UniProt P09619); details: Compound concentration 1000.0 nM
[33] = molecular target: Serine/threonine-protein kinase PRP4 homolog (Homo sapiens) (UniProt Q13523); details: Compound concentration 1000.0 nM
[34] = test system: Proto-oncogene tyrosine-protein kinase receptor Ret (Homo sapiens), P07949 [M918T]; details: Compound concentration 1000.0 nM
[35] = molecular target: Serine/threonine-protein kinase RIO3 (Homo sapiens) (UniProt O14730); details: Compound concentration 1000.0 nM
[36] = molecular target: Ribosomal protein S6 kinase alpha-4 (Homo sapiens) (UniProt O75676); details: Compound concentration 1000.0 nM
[37] = molecular target: Ribosomal protein S6 kinase alpha-5 (Homo sapiens) (UniProt O75582); details: Compound concentration 1000.0 nM
[38] = molecular target: STE20-like serine/threonine-protein kinase (Homo sapiens) (UniProt Q9H2G2); details: Compound concentration 1000.0 nM
[39] = molecular target: Serine/threonine-protein kinase tousled-like 1 (Homo sapiens) (UniProt Q9UKI8); details: Compound concentration 1000.0 nM
[40] = molecular target: Serine/threonine-protein kinase ULK3 (Homo sapiens) (UniProt Q6PHR2); details: Compound concentration 1000.0 nM
[41] = molecular target: Serine/threonine-protein kinase 32C (Homo sapiens) (UniProt Q86UX6); details: Compound concentration 1000.0 nM
[42] = molecular target: Tyrosine-protein kinase Yes (Homo sapiens) (UniProt P07947); details: Compound concentration 1000.0 nM
[43] = molecular target: D(3) dopamine receptor (Homo sapiens) (UniProt P35462); details: Compound concentration 10.0 uM
[44] = molecular target: Sodium-dependent noradrenaline transporter (Homo sapiens) (UniProt P23975); details: Compound concentration 10.0 uM
[45] = molecular target: Beta-2 adrenergic receptor (Homo sapiens) (UniProt P07550); details: Compound concentration 10.0 uM
Beta-2 adrenergic receptor (Homo sapiens), sequence (P07550 whole entry, looked up): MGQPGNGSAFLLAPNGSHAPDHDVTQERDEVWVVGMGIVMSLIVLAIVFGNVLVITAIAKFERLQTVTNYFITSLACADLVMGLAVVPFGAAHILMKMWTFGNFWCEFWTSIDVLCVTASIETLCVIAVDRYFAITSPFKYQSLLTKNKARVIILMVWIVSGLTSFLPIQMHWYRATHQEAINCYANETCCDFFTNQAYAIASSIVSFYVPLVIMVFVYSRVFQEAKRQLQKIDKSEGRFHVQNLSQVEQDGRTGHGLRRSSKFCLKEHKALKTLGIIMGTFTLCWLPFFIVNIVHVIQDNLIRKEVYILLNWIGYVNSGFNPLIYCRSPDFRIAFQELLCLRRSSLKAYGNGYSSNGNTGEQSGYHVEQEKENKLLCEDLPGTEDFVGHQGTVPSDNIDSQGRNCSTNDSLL

Cyclin-dependent kinase 4 (Homo sapiens), sequence (P11802 whole entry): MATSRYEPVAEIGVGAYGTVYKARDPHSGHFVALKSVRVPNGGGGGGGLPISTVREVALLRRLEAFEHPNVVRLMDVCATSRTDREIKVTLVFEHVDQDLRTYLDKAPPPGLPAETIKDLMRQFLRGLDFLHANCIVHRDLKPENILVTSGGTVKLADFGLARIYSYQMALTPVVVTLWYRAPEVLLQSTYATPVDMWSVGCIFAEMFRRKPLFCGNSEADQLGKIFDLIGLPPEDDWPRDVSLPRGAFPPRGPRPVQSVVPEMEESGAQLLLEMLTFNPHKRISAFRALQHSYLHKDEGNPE
Ephrin type-B receptor 4 (Homo sapiens), sequence (P54760 whole entry): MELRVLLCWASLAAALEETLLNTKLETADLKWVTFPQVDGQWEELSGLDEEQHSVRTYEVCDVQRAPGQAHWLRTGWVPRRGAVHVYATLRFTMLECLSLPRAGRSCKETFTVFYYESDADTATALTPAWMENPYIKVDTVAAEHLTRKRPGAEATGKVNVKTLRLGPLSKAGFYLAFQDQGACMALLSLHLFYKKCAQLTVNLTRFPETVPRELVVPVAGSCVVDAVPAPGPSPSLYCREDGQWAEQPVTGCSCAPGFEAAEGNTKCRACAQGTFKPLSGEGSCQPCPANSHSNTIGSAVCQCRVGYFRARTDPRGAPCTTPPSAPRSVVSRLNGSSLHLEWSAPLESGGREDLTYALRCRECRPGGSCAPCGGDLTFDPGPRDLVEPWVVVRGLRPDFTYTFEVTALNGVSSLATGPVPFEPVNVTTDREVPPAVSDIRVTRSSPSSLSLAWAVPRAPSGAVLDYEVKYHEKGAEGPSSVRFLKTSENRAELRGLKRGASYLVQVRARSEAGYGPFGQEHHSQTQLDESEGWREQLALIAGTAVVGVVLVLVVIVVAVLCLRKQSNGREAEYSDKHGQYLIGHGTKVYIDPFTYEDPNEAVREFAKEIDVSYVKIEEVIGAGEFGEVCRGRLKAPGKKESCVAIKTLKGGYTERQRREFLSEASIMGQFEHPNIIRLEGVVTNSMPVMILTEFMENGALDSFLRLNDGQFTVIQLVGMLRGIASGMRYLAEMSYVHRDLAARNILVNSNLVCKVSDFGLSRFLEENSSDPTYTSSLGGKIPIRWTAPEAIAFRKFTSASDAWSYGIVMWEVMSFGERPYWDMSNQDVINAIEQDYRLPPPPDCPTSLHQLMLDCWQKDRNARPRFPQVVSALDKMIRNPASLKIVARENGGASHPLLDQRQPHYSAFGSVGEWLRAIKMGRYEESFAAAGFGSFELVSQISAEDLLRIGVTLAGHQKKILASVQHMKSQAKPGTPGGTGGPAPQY
Serine/threonine-protein kinase BRSK2 (Homo sapiens), sequence (Q8IWQ3 whole entry): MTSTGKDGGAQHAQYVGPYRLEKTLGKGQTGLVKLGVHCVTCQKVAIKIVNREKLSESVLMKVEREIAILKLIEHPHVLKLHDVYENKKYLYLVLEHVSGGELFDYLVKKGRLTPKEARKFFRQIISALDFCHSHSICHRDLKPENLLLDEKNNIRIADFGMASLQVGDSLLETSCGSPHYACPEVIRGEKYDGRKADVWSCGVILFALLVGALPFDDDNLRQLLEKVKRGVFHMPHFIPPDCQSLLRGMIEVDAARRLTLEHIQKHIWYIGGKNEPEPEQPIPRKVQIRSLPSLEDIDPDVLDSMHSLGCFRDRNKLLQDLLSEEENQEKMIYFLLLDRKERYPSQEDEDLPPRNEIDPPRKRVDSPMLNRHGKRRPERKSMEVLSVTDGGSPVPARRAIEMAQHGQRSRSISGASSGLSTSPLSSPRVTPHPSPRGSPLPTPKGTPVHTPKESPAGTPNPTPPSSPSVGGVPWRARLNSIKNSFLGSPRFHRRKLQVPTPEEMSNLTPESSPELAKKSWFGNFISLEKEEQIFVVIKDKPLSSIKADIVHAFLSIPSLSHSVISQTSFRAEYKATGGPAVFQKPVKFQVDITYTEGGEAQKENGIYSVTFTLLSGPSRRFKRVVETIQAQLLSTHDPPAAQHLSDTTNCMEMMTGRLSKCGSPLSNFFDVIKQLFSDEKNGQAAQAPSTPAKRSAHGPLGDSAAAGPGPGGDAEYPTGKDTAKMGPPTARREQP
Cyclin-dependent kinase-like 1 (Homo sapiens), sequence (Q00532 whole entry, canonical isoform): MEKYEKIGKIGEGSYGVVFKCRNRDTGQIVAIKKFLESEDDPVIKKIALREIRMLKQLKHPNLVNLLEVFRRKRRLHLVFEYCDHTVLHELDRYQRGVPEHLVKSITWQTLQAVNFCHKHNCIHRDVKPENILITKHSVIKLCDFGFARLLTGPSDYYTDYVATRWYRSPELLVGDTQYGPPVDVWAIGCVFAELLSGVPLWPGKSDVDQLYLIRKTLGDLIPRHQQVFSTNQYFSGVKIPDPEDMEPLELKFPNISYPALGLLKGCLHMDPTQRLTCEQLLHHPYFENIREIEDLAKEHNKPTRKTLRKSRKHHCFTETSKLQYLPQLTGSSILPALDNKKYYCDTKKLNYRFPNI
Ribosomal protein S6 kinase alpha-5 (Homo sapiens), sequence (O75582 whole entry, looked up): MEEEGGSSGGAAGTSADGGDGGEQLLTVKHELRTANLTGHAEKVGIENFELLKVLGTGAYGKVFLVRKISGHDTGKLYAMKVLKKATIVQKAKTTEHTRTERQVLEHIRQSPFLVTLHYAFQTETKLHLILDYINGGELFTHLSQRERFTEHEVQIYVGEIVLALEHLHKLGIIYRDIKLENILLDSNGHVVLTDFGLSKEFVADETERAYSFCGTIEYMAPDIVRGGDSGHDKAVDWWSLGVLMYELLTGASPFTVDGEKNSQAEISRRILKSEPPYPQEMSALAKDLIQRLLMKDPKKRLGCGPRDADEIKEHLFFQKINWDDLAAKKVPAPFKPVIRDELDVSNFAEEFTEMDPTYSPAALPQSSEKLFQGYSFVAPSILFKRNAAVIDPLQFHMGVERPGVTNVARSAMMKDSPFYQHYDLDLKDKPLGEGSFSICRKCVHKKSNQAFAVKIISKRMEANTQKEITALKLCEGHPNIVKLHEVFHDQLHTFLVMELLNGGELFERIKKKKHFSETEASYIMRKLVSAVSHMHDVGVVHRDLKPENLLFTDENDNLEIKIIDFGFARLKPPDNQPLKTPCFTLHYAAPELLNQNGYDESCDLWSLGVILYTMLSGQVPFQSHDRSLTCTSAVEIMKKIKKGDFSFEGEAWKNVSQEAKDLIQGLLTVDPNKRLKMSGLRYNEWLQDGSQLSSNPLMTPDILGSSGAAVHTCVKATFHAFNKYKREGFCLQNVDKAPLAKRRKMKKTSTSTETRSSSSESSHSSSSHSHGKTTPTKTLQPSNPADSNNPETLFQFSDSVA
Mitogen-activated protein kinase 1 (Homo sapiens), sequence (P28482 whole entry): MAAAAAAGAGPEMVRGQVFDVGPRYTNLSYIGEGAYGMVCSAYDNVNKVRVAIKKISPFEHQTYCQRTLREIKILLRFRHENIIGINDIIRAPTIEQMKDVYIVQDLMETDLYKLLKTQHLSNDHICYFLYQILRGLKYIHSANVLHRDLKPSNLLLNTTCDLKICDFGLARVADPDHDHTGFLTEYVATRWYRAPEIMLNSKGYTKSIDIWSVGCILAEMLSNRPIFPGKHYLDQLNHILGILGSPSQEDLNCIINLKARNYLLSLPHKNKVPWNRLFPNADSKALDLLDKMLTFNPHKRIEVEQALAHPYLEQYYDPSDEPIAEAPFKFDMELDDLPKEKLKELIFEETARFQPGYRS
Calcium/calmodulin-dependent protein kinase kinase 1 (Homo sapiens), sequence (Q8N5S9 whole entry, looked up): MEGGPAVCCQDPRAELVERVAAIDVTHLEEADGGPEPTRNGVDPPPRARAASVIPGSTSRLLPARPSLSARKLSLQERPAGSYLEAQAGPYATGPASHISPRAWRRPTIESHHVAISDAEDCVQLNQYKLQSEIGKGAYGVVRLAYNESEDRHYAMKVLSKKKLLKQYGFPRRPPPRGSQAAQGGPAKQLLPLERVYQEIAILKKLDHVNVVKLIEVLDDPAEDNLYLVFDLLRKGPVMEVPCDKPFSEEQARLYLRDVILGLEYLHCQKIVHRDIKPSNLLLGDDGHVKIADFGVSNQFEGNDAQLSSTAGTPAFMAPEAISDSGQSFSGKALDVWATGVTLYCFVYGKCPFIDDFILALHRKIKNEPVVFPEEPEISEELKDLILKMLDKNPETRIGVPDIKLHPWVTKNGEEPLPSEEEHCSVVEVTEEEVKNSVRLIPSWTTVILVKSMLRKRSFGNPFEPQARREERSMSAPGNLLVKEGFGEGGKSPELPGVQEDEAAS
Cyclin-dependent kinase 18 (Homo sapiens), sequence (Q07002 whole entry): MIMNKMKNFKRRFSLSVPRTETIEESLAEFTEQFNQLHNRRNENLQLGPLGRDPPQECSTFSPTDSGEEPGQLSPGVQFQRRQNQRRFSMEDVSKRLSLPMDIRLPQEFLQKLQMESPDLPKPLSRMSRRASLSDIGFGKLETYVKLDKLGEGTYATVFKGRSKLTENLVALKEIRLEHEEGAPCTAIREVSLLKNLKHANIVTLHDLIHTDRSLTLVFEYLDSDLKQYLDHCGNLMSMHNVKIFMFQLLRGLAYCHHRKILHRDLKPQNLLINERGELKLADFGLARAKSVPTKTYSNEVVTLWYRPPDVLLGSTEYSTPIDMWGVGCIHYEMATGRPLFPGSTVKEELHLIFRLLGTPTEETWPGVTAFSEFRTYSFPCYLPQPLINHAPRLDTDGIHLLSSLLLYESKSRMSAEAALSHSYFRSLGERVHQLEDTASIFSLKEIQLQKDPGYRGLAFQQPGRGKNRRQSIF

CCC(=O)N[C@@H]1CC[C@H](C(=O)N(C)c2ccc(-c3nc4ccccc4o3)cc2)C1 [BI 99990]
inactive: residual activity [1] 100% | residual activity [2] 100% | residual activity [3] 76% | residual activity [4] 100% | residual activity [5] 96% | residual activity [6] 100% | residual activity [7] 90% | residual activity [8] 100% | residual activity [9] 92% | residual activity [10] 100% | residual activity [11] 100% | residual activity [12] 88% | residual activity [13] 100% | residual activity [14] 100% | residual activity [15] 76% | residual activity [16] 100% | residual activity [17] 100% | residual activity [18] 100% | residual activity [19] 100% | residual activity [20] 69% | residual activity [21] 100% | residual activity [22] 92% | residual activity [23] 91% | residual activity [24] 100% | residual activity [25] 98% | residual activity [26] 77% | residual activity [27] 73% | residual activity [28] 100% | residual activity [29] 100% | residual activity [30] 100% | residual activity [31] 95% | residual activity [32] 98% | residual activity [33] 77% | residual activity [34] 100% | residual activity [35] 100% | residual activity [36] 100% | residual activity [37] 97% | residual activity [38] 100% | residual activity [39] 100% | residual activity [40] 66% | residual activity [41] 73% | residual activity [42] 100% | inhibition [43] 4.36% | inhibition [44] 14.5% | inhibition [45] 0.247%

CCC(=O)N[C@H]1CC[C@@H](C(=O)N(C)c2ccc(-c3nc4ccccc4o3)cc2)C1 [BI 99179]
inactive: residual activity [1] 75% | residual activity [2] 100% | residual activity [3] 97% | residual activity [4] 85% | residual activity [5] 79% | residual activity [6] 88% | residual activity [7] 95% | residual activity [8] 93% | residual activity [9] 100% | residual activity [10] 100% | residual activity [11] 73% | residual activity [12] 76% | residual activity [13] 98% | residual activity [14] 91% | residual activity [15] 84% | residual activity [16] 100% | residual activity [17] 100% | residual activity [18] 100% | residual activity [19] 57% | residual activity [20] 67% | residual activity [21] 89% | residual activity [22] 100% | residual activity [23] 100% | residual activity [24] 100% | residual activity [25] 82% | residual activity [26] 76% | residual activity [27] 66% | residual activity [28] 83% | residual activity [29] 88% | residual activity [30] 100% | residual activity [31] 100% | residual activity [32] 89% | residual activity [33] 99% | residual activity [34] 100% | residual activity [35] 92% | residual activity [36] 79% | residual activity [37] 68% | residual activity [38] 92% | residual activity [39] 84% | residual activity [40] 67% | residual activity [41] 94% | residual activity [42] 82% | inhibition [43] 12.1% | inhibition [44] 2.94% | inhibition [45] 1.55%
